Numbered stars: 1 amine (or outer) side, 2 acyl side, 3 side chain; on linkers, the order of the positions; unused ones are H or OH. Square brackets hold non-standard residues; d marks the D form. Side chains are listed from the residue outwards. Peptide text beside a SMILES is read from it. * marks the point of attachment. γGlu = O=C(O)[C@H](CCC(=O)[*:2])N[*:1]; Stearoyl = CCCCCCCCCCCCCCCCCC(=O)*; AEEA = NCCOCCOCC(=O)O; Aib = CC(C)(N)C(=O)O
The compounds below were run against T1, human GIP R (Homo sapiens, UniProt P48546) (assay: Human GIP receptor (GIP-R) activity assay, cAMP induction (AlphaScreen) in HEK293 cells). Settings: not given.
T1 construct: expressed in transfected cells
T1 sequence (P48546 22-466): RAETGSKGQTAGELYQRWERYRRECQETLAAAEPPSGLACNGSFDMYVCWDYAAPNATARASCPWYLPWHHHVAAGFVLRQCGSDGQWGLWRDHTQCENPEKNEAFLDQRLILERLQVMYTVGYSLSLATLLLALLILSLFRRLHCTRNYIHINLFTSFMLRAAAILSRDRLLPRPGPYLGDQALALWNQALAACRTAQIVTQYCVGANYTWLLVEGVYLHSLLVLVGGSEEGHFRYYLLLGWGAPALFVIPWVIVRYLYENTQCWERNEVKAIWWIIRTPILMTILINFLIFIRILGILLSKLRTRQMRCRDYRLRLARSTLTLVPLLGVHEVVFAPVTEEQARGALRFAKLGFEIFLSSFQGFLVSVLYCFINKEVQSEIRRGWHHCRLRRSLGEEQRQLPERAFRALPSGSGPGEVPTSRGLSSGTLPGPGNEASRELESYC
Assay type: cell-based
With `CC(C)C[C@H](NC(=O)[C@H](C)NC(=O)[C@H](CCCCN)NC(=O)[C@H](CO)NC(=O)[C@H](Cc1ccc(O)cc1)NC(=O)[C@H](CC(=O)O)NC(=O)[C@H](CO)NC(=O)[C@@H](NC(=O)[C@H](Cc1ccccc1)NC(=O)[C@@H](NC(=O)CNC(=O)[C@H](CCC(N)=O)NC(=O)C(C)(C)NC(=O)[C@@H](N)Cc1ccc(O)cc1)[C@@H](C)O)[C@@H](C)O)C(=O)N[C@@H](CC(=O)O)C(=O)N[C@@H](CO)C(=O)N[C@@H](CCCCN)C(=O)N[C@@H](C)C(=O)N[C@@H](C)C(=O)N[C@@H](Cc1c[nH]cn1)C(=O)N[C@@H](CC(=O)O)C(=O)N[C@@H](Cc1ccccc1)C(=O)N[C@H](C(=O)N[C@@H](CCC(=O)O)C(=O)N[C@@H](Cc1c[nH]c2ccccc12)C(=O)N[C@@H](CC(C)C)C(=O)N[C@@H](CC(C)C)C(=O)N[C@@H](CO)C(=O)N[C@@H](C)C(N)=O)C(C)C` [Compound 7] (HELM PEPTIDE1{Y.[Aib].Q.G.T.F.T.S.D.Y.S.K.A.L.D.S.K.A.A.H.D.F.V.E.W.L.L.S.A.[am]}$$$$V2.0) the EC50 was 500 pM.

Each compound was assayed against T2, human GLP-1 R (Homo sapiens, UniProt P43220) (assay: Human GLP-1 receptor (GLP-1-R) activity assay, cAMP induction (AlphaScreen) in HEK293 cells). Settings: Table 2b (most comprehensive data); average EC50; cAMP in HEK293 cells expressing human GLP-1 R; read-out: GLP1 R (EC50 in nM).
T2 construct: expressed in transfected cells
T2 sequence (P43220 24-463): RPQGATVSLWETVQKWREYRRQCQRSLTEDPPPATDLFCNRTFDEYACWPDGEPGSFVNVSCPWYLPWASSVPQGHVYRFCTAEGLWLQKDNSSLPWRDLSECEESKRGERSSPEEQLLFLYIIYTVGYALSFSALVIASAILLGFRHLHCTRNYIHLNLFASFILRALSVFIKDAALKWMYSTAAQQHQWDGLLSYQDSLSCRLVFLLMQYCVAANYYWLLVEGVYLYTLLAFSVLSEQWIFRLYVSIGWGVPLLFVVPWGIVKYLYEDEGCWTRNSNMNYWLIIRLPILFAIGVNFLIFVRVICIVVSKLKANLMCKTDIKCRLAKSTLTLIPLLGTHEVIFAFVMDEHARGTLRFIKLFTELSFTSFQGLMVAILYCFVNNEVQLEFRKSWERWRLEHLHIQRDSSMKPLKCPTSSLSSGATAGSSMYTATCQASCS
Assay type: cell-based
Method: Briefly, HEK293 cells expressing the human GIP R, GLP-1 R or GCG R (stable cell lines generated through transfection of the cDNA for human GIP R, GLP-1 R or GCG R and selection of stable clones) were seeded at 30,000 cells/well in 96-well microtiter plates coated with 0.01% poly-L-lysine, and grown for 1 day in culture in 200 μl growth medium (DMEM, 10% FCS, Penicillin (100 IU/ml), Streptomycin (100 μg/ml)). On the day of analysis, growth medium was removed and the cells were washed once with 150 μl Tyrode's buffer (Tyrode's Salts (9.6 g/I), 10 mM HEPES, pH 7.4). […] The Assay buffer was removed and cells are lysed in 80 μl Lysis buffer (0.1% w/v BSA, 5 mM HEPES, 0.3% v/v Tween-20) per well. From each well 10 μl of lysed cells were transferred to a 384-well plate and mixed with 15 μl bead-mix (1 Unit/15 μl anti-cAMP Acceptor Beads, 1 Unit/15 μl Donor Beads, and 1 Unit/15 μl Biotinylated cAMP in Assay Buffer). The plates were mixed and incubated in the dark for an hour at room temperature before measuring using an Envision™ plate reader (Perkin-Elmer).
The resulting cAMP curves were plotted as absolute cAMP concentrations (nM) over log (test compound concentration) and analyzed using the curve fitting program XLfit.
Parameters calculated to describe both the potency as well as the agonistic activity of each test compound on the receptors were:
EC50, a concentration resulting in a half-maximal elevation of cAMP levels, reflecting the potency of the test compound.
Work on `CC(C)C[C@H](NC(=O)[C@H](C)NC(=O)[C@H](CCCCN)NC(=O)[C@H](CO)NC(=O)[C@H](Cc1ccc(O)cc1)NC(=O)[C@H](CC(=O)O)NC(=O)[C@H](CO)NC(=O)[C@@H](NC(=O)[C@H](Cc1ccccc1)NC(=O)[C@@H](NC(=O)CNC(=O)[C@H](CCC(N)=O)NC(=O)C(C)(C)NC(=O)[C@@H](N)Cc1ccc(O)cc1)[C@@H](C)O)[C@@H](C)O)C(=O)N[C@@H](CC(=O)O)C(=O)N[C@@H](CCC(=O)O)C(=O)N[C@@H](CCCCN)C(=O)N[C@@H](C)C(=O)N[C@@H](C)C(=O)N[C@@H](CCCCN)C(=O)N[C@@H](CCC(=O)O)C(=O)N[C@@H](Cc1ccccc1)C(=O)N[C@H](C(=O)N[C@@H](CCC(=O)O)C(=O)N[C@@H](Cc1c[nH]c2ccccc12)C(=O)N[C@@H](CC(C)C)C(=O)N[C@@H](CC(C)C)C(=O)N[C@@H](CO)C(=O)N[C@@H](C)C(N)=O)C(C)C` [Compound 21] (HELM PEPTIDE1{Y.[Aib].Q.G.T.F.T.S.D.Y.S.K.A.L.D.E.K.A.A.K.E.F.V.E.W.L.L.S.A.[am]}$$$$V2.0) yielded an EC50 of 0.015 nM. Work on `CCCCCCCCCCCCCCCCCC(=O)N[C@@H](CCC(=O)NCCOCCOCC(=O)NCCOCCOCC(=O)NCCCC[C@H](NC(=O)[C@H](CCCCN)NC(=O)[C@H](CCC(=O)O)NC(=O)[C@H](CC(C)C)NC(=O)[C@H](C)NC(=O)[C@@H](NC(=O)[C@H](CO)NC(=O)[C@H](Cc1ccc(O)cc1)NC(=O)[C@H](CC(=O)O)NC(=O)[C@H](CO)NC(=O)[C@@H](NC(=O)[C@H](Cc1ccccc1)NC(=O)[C@@H](NC(=O)CNC(=O)[C@H](CCC(N)=O)NC(=O)C(C)(C)NC(=O)[C@@H](N)Cc1ccc(O)cc1)[C@@H](C)O)[C@@H](C)O)[C@@H](C)CC)C(=O)N[C@@H](C)C(=O)N[C@@H](CCC(N)=O)C(=O)N[C@@H](CCCNC(=N)N)C(=O)N[C@@H](C)C(=O)N[C@@H](Cc1ccccc1)C(=O)N[C@H](C(=O)N[C@@H](CCC(=O)O)C(=O)N[C@@H](Cc1c[nH]c2ccccc12)C(=O)N[C@@H](CC(C)C)C(=O)N[C@@H](CC(C)C)C(=O)N[C@@H](C)C(=O)N[C@@H](CCC(N)=O)C(=O)N[C@@H](CCCCN)C(N)=O)C(C)C)C(=O)O` [Compound 46] (H-Y[Aib]QGTFTSDYSIALEKK([AEEA-AEEA-γGlu-Stearoyl])AQRAFVEWLLAQK-NH2) yielded an EC50 of 0.016 nM. For `CCCCCCCCCCCCCCCC(=O)N[C@@H](CCC(=O)NCCCC[C@H](NC(=O)[C@H](CCC(=O)O)NC(=O)[C@H](CC(C)C)NC(=O)[C@H](Cc1ccc(O)cc1)NC(=O)[C@@H](NC(=O)[C@H](CO)NC(=O)[C@H](Cc1ccc(O)cc1)NC(=O)[C@H](CC(=O)O)NC(=O)[C@H](CO)NC(=O)[C@@H](NC(=O)[C@H](Cc1ccccc1)NC(=O)[C@@H](NC(=O)CNC(=O)[C@H](CCC(N)=O)NC(=O)C(C)(C)NC(=O)[C@@H](N)Cc1ccc(O)cc1)[C@@H](C)O)[C@@H](C)O)[C@@H](C)CC)C(=O)N[C@@H](CCCCN)C(=O)N[C@@H](C)C(=O)N[C@@H](C)C(=O)N[C@@H](CCCCN)C(=O)N[C@@H](CCC(=O)O)C(=O)N[C@@H](Cc1ccccc1)C(=O)N[C@H](C(=O)N[C@@H](CCC(=O)O)C(=O)N[C@@H](Cc1c[nH]c2ccccc12)C(=O)N[C@@H](CC(C)C)C(=O)N[C@@H](CC(C)C)C(=O)N[C@@H](CO)C(=O)N[C@@H](C)C(N)=O)C(C)C)C(=O)O` [Compound 24] (HELM PEPTIDE1{Y.[Aib].Q.G.T.F.T.S.D.Y.S.I.Y.L.E.K.K.A.A.K.E.F.V.E.W.L.L.S.A.[am]}|PEPTIDE2{[CCCCCCCCCCCCCCCC(=O)[*:2]].[gGlu]}$PEPTIDE1,PEPTIDE2,16:R3-2:R2$$$V2.0), the EC50 was 0.11 nM. `CC(C)C[C@H](NC(=O)[C@H](CC(C)C)NC(=O)[C@H](Cc1c[nH]c2ccccc12)NC(=O)[C@H](CCC(=O)O)NC(=O)[C@@H](NC(=O)[C@H](Cc1ccccc1)NC(=O)[C@H](CCC(=O)O)NC(=O)[C@H](CCCCN)NC(=O)[C@H](CCC(N)=O)NC(=O)[C@H](C)NC(=O)[C@H](CCCCN)NC(=O)[C@H](CCCCN)NC(=O)[C@H](CCC(=O)O)NC(=O)[C@H](CC(C)C)NC(=O)[C@H](Cc1ccc(O)cc1)NC(=O)[C@H](CCCCN)NC(=O)[C@H](CO)NC(=O)[C@H](Cc1ccc(O)cc1)NC(=O)[C@H](CC(=O)O)NC(=O)[C@H](CO)NC(=O)[C@@H](NC(=O)[C@H](Cc1ccccc1)NC(=O)[C@@H](NC(=O)CNC(=O)[C@H](CCC(N)=O)NC(=O)C(C)(C)NC(=O)[C@@H](N)Cc1ccc(O)cc1)[C@@H](C)O)[C@@H](C)O)C(C)C)C(=O)N[C@@H](CO)C(=O)N[C@@H](C)C(N)=O` [Compound 22] (HELM PEPTIDE1{Y.[Aib].Q.G.T.F.T.S.D.Y.S.K.Y.L.E.K.K.A.Q.K.E.F.V.E.W.L.L.S.A.[am]}$$$$V2.0) showed an EC50 of 0.03 nM. In the case of `CC[C@H](C)[C@H](NC(=O)[C@H](CO)NC(=O)[C@H](Cc1ccc(O)cc1)NC(=O)[C@H](CC(=O)O)NC(=O)[C@H](CO)NC(=O)[C@@H](NC(=O)[C@H](Cc1ccccc1)NC(=O)[C@@H](NC(=O)CNC(=O)[C@H](CCC(N)=O)NC(=O)C(C)(C)NC(=O)[C@@H](N)Cc1ccc(O)cc1)[C@@H](C)O)[C@@H](C)O)C(=O)N[C@@H](Cc1ccc(O)cc1)C(=O)N[C@@H](CC(C)C)C(=O)N[C@@H](CC(=O)O)C(=O)N[C@@H](CCC(=O)O)C(=O)N[C@@H](CCCCN)C(=O)N[C@@H](C)C(=O)N[C@@H](C)C(=O)N[C@@H](CCCCN)C(=O)N[C@@H](CC(=O)O)C(=O)N[C@@H](Cc1ccccc1)C(=O)N[C@H](C(=O)N[C@@H](CCC(=O)O)C(=O)N[C@@H](Cc1c[nH]c2ccccc12)C(=O)N[C@@H](CC(C)C)C(=O)N[C@@H](CC(C)C)C(=O)N[C@@H](CO)C(=O)N[C@@H](C)C(N)=O)C(C)C` [Compound 17] (HELM PEPTIDE1{Y.[Aib].Q.G.T.F.T.S.D.Y.S.I.Y.L.D.E.K.A.A.K.D.F.V.E.W.L.L.S.A.[am]}$$$$V2.0), the EC50 is reported as 0.013 nM.
